How the values were obtained:
[1] = system: healthy male volunteers; assay: Preliminary pharmacodynamic studies with healthy humans; type: in vivo; settings: single intravenous injection of the emulsion injection
Description: The subjects were fasted during the night for 6 hours or longer. The Emulsion injection of Compound 7 was administered by single intravenous injection. Groups 1 and 2 were administered by manual push injection for 2 to 3 seconds, and Groups 3-8 were administered by constant-rate pump injection for more than 1 min.
Primary indices include RASS and the tolerance to pain during injection (Verbal rating scale (VRS) was used to allow the researchers to know the pain degree of subjects); and secondary indices include cardiovascular indices and EEG (electroencephalogram) and BIS (Bispectral index) associated with the cognitive function recovery evaluation (QoR-40).

[2] = system: ICR mice; assay: Righting reflex experiment on mice; settings: for HD7 / Anesthesia maintenance time / SI / TI / Anesthesia induction time: intravenous; for HD7: dose required to cause a 7-min anesthesia; for Anesthesia maintenance time: loss until recovery of righting reflex; for ED50: Mus musculus, iv; for SI: safety index, LD5/ED95; for TI: therapeutic index, LD50/ED50; for Anesthesia induction time: end of administration until loss of righting reflex
Description: (§1) LD5 (5% lethal dose): dose required to cause 5% of animals to die in a test.
(§2) If a normal animal was able to immediately body-right after being pushed over or made lying on its back, such a reflex was determined as the righting reflex. Otherwise, loss of the righting reflex and the time of loss were recorded, and a reflex recovery time was recorded when the animal restored the righting reflex. The period from finishing of drug administration until loss of the righting reflex was recorded as the anesthesia induction time, and the period from loss of the righting reflex until recovery of the righting reflex was recorded as the anesthesia maintenance time.
(§3) TI (therapeutic index, i.e. LD50/ED50), SI (safety index, i.e. LD5/ED95).
(§4) MTD (maximum tolerated dose): the maximum dose able to cause 100% of animals to loss the righting index without death.
(§5) Indicators such as median effective dose (ED50), median lethal dose (LD50), therapeutic index (TI, i.e. LD50/ED50), safety index (SI, i.e. LD5/ED95), anesthesia induction time, anesthesia maintenance time, and maximum tolerated dose (MTD) were used to evaluate the effect and safety of anesthesia. […] After adapting to the laboratory environment, laboratory animals were fasted for 12 hours. On the next day, administration was carried out at 10 mg/kg body weight. Upon intravenous injection, the time of loss of the righting reflex was recorded. The period from finishing of drug administration until loss of the righting reflex was recorded as the anesthesia induction time, and the period from loss of the righting reflex until recovery of the righting reflex was recorded as the anesthesia maintenance time. The anesthesia induction time and the anesthesia maintenance time were used to indicate how strong an anesthetic effect was. Meanwhile, the dose required to cause a 7-min anesthesia (HD7) was measured and used to evaluate relative efficacy.

[3] = Righting reflex experiment on mice; settings: both, ICR, mouse, in vivo, iv
Description: as §1, §2, §3, §4, §5

| Compound | dose with which subjects started showing light anesthesia [1] [mg/kg] | HD7 ([2]; ICR mice) [mg/kg] | MTD [3] [mg/kg] | LD50 ([2]; ICR mice, intravenous injection, solvent 10% DMSO, 15% solutol HS15, 75% saline) [mg/kg] | Anesthesia maintenance time ([2]; ICR mice) [s] | ED50 [2] [mg/kg] | SI ([2]; ICR mice) | TI ([2]; ICR mice) | Anesthesia induction time ([2]; ICR mice) [s] | LD50 [3] [mg/kg] |
| --- | --- | --- | --- | --- | --- | --- | --- | --- | --- | --- |
| CC(C)c1cccc([C@H](C)C2CC2)c1O [Compound 7, 2-[(1R)-1-cyclopropylethyl]-6-isopropyl-phenol] | 0.128 | – | – | – | – | – | – | – | – | – |
| C[C@H](c1cccc([C@H](C)C2CC2)c1O)C1CC1 [Compound 9, 2-[(1S)-1-cyclopropylethyl]-6-[(1R)-1-cyclopropylethyl]phenol] | – | 2.5 | – | – | – | – | – | – | – | – |
| C[C@@H](c1cccc([C@H](C)C2CC2)c1O)C1CC1 [Compound 10, 2,6-bis[(1R)-1-cyclopropylethyl]phenol] | – | – | 5 | 6.3 | 754.4 | 1.5 | 3.8 | 4.1 | – | – |
| CC(C)c1cccc(C(C)C2CC2)c1O (racemic) [Compound 1, 2-(1-cyclopropylethyl)-6-isopropylphenol] | – | 6.0 | 10 | – | 660.4 | 3.7 | 1.7 | 6.1 | <15.0 | – |
| CC(C)c1cccc([C@@H](C)C2CC2)c1O [Compound 8, 2-[(1S)-1-cyclopropylethyl]-6-isopropyl-phenol] | – | – | 20 | – | 1031.6 | 5.8 | 3.5 | 7.5 | <15.0 | 43.6 |

Source: US10729666B2, “Use of GABAA receptor reinforcing agent in preparation of sedative and anesthetic medicament” (Sichuan Haisco Pharmaceutical Co., Ltd., priority 2014, dated 2020)
